This experiment addresses PDE10A (UniProt Q9Y233). Put plainly: PDE10 enzyme inhibition, IMAP TR-FRET assay (Example A, MPDE10A7 Enzyme Activity and Inhibition). The format is biochemical. Particulars: approximate IC50 value, Table 10. The procedure, abridged:
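Compounds were preincubated 60 min at room temperature with PDE10A enzyme or tissue homogenate, then fluorescein-labeled cAMP or cGMP was added for 90 min. After stopping with IMAP binding reagents, TR-FRET was read and IC50s were fitted with a four-parameter logistic equation.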
In general terms: TR-FRET usually uses a lanthanide donor and a delayed reading to cut background.

The values below come from patent publication US9174992B2, “Heterobicyclic compounds” (Amgen Inc., priority 2012, dated 2015).

As to `CC1(C)C(=O)N(C2CCN(c3nc4ccc(F)cc4s3)CC2)c2ncccc21` [Example 191, 1-(1-(6-fluorobenzo[d]thiazol-2-yl)piperidin-4-yl)-3,3-dimethyl-1H-pyrrolo[2,3-b]pyridin-2(3 H)-one], half-maximal inhibition (IC50) was put at 3.46 nM.

`CC1(C)C(=O)N([C@H]2C[C@H](Nc3ccc4cc(F)ccc4n3)C2)c2nccnc21` [Example 192]: the concentration for half-maximal inhibition (IC50) – broadly, the concentration that inhibits the measured activity by half – turned out to be 14.8 nM.

On to `CC1(C)C(=O)N(C2CCN(c3ccc4ccc(F)cc4n3)CC2)c2ncccc21` [Example 193, 1-(1-(7-fluoroquinolin-2-yl)piperidin-4-yl)-3,3-dimethyl-1H-pyrrolo[2,3-b]pyridin-2(3 H)-one], for which the IC50 was determined as 2.1 nM.

`CC1(C)C(=O)N(C2CCN(c3ccc4cc(F)ccc4n3)CC2)c2ncccc21` [Example 194, 1-(1-(6-fluoroquinolin-2-yl)piperidin-4-yl)-3,3-dimethyl-1H-pyrrolo[2,3-b]pyridin-2(3 H)-one] registered an IC50 of 15.1 nM.

The molecule `CC1(C)C(=O)Nc2nc([C@H]3C[C@H](Nc4ccc5ccc(F)cc5n4)C3)cnc21` [Example 195, 3-(trans-3-((7-fluoroquinolin-2-yl)amino)cyclobutyl)-7,7-dimethyl-5H-pyrrolo[2,3-b]pyrazin-6(7 H)-one] came in with an IC50 of 0.938 nM.

With `Cn1c(=O)n([C@H]2C[C@H](Nc3nc4ccccc4o3)C2)c2ncc(F)cc21` [Example 196, 3-(Trans-3-(benzo[d]oxazol-2-ylamino)cyclobutyl)-6-fluoro-1-methyl-1H-imidazo[4,5-b]pyridin-2(3 H)-one], the IC50 was 4.2 nM.

Turning to `CC1(C)C(=O)N([C@H]2C[C@H](Oc3nc4ccccc4s3)C2)c2nccnc21` [Example 197, 5-(trans-3-(benzo[d]thiazol-2-yloxy)cyclobutyl)-7,7-dimethyl-5H-pyrrolo[2,3-b]pyrazin-6(7H)-one], the concentration for half-maximal inhibition (IC50) worked out at 1.77 nM.

The molecule `CC1(C)C(=O)N(C2CCN(c3nc4ccccc4s3)CC2)c2nccnc21` [Example 198, 5-(1-(benzo[d]thiazol-2-yl)piperidin-4-yl)-7,7-dimethyl-5H-pyrrolo[2,3-b]pyrazin-6(7H)-one] yielded an IC50 of 2.36 nM.

In turn, `CC1(C)C(=O)N(C2CCN(c3ccc4cc(F)ccc4n3)CC2)c2nccnc21` [Example 199, 5-(1-(6-fluoroquinolin-2-yl)piperidin-4-yl)-7,7-dimethyl-5H-pyrrolo[2,3-b]pyrazin-6(7H)-one] came in with an IC50 of 15.1 nM.

Regarding `CC1(C)C(=O)N(C2CCN(c3ncc4ccc(Cl)cc4n3)CC2)c2nccnc21` [Example 200, 5-(1-(7-chloroquinazolin-2-yl)piperidin-4-yl)-7,7-dimethyl-5H-pyrrolo[2,3-b]pyrazin-6(7H)-one], inhibition was half-maximal at 86.3 nM (IC50).

Turning to `CC1(C)C(=O)N(C2CCN(c3ncc4cc(F)ccc4n3)CC2)c2nccnc21` [Example 201, 5-(1-(6-fluoroquinazolin-2-yl)piperidin-4-yl)-7,7-dimethyl-5H-pyrrolo[2,3-b]pyrazin-6(7H)-one], half-maximal inhibition (IC50) required 3.48 nM.

For `CC1(C)C(=O)N(C2CCN(c3nc4ccc(C(F)(F)F)cc4s3)CC2)c2nccnc21` [Example 202, 7,7-dimethyl-5-(1-(6-(trifluoromethyl)benzo[d]thiazol-2-yl)piperidin-4-yl)-5H-pyrrolo[2,3-b]pyrazin-6(7H)-one], the IC50 is 68.8 nM.

Turning to `Cc1csc(N[C@H]2C[C@H](N3C(=O)C(C)(C)c4cccnc43)C2)n1` [Example 203, 3,3-dimethyl-1-(trans-3-((4-methylthiazol-2-yl)amino)cyclobutyl)-1H-pyrrolo[2,3-b]pyridin-2(3H)-one], the IC50 was 109 nM.

Regarding `CC1(C)C(=O)N([C@H]2C[C@H](Nc3ncc(-c4ccccc4)s3)C2)c2ncccc21` [Example 204, 3,3-dimethyl-1-(trans-3-((5-phenylthiazol-2-yl)amino)cyclobutyl)-1H-pyrrolo[2,3-b]pyridin-2(3H)-one], half-maximal inhibition (IC50) was put at 2910 nM.

`Cc1cnc(N[C@H]2C[C@H](N3C(=O)C(C)(C)c4cccnc43)C2)s1` [Example 205, 3,3-dimethyl-1-(trans-3-((5-methylthiazol-2-yl)amino)cyclobutyl)-1H-pyrrolo[2,3-b]pyridin-2(3H)-one] returned an IC50 of 13.2 nM.

In the case of `Cn1c(=O)n([C@H]2C[C@H](Nc3ncc4ccccc4n3)C2)c2ncc(F)cc21` [Example 206, 6-fluoro-1-methyl-3-(trans-3-(quinazolin-2-ylamino)cyclobutyl)-1H-imidazo[4,5-b]pyridin-2(3H)-one], half-maximal inhibition (IC50) was put at 7.65 nM.

On to `CC1(C)C(=O)N([C@H]2C[C@H](Nc3ccc(Br)cn3)C2)c2nccnc21` [Example 207, 5-(trans-3-((5-bromopyridin-2-yl)amino)cyclobutyl)-7,7-dimethyl-5H-pyrrolo[2,3-b]pyrazin-6(7 H)-one], for which the IC50 amounted to 2.39 nM.

The molecule `O=C1N([C@H]2C[C@H](Nc3nc4ccccc4s3)C2)c2ncc(F)cc2C1(F)F` [Example 208, 1-(trans-3-(benzo[d]thiazol-2-ylamino)cyclobutyl)-3,3,5-trifluoro-1H-pyrrolo[2,3-b]pyridin-2(3H)-one] yielded an IC50 of 0.626 nM.

On to `Cn1c(=O)n([C@H]2C[C@H](Nc3nc4ccc(F)cc4s3)C2)c2ncc(F)cc21` [Example 209, 6-fluoro-3-(trans-3-((6-fluorobenzo[d]thiazol-2-yl)amino)cyclobutyl)-1-methyl-1H-imidazo[4,5-b]pyridin-2(3H)-one], for which the IC50 was 0.88 nM.

With `Cn1c(=O)n([C@H]2C[C@H](Nc3nc4cc(F)ccc4s3)C2)c2ncc(F)cc21` [Example 210, 6-fluoro-3-(trans-3-((5-fluorobenzo[d]thiazol-2-yl)amino)cyclobutyl)-1-methyl-1H-imidazo[4,5-b]pyridin-2(3 H)-one], the midpoint of inhibition, the IC50, lay at 0.892 nM.

Consider `O=C1N([C@H]2C[C@H](Nc3nc4ccccc4s3)C2)c2ncc(Cl)cc2C1(F)F` [Example 211, 1-(trans-3-(benzo[d]thiazol-2-ylamino)cyclobutyl)-5-chloro-3,3-difluoro-1H-pyrrolo[2,3-b]pyridin-2(3 H)-one], for which the IC50 is 0.111 nM.

In turn, `O=C1N([C@H]2C[C@H](Nc3nc4ccccc4s3)C2)c2ncccc2C1(F)F` [Example 212, 1-(trans-3-(benzo[d]thiazol-2-ylamino)cyclobutyl)-3,3-difluoro-1-H-pyrrolo[2,3-b]pyridin-2-(3H)-one] returned an IC50 of 0.449 nM.

On to `CC1(C)C(=O)N([C@H]2C[C@H](Nc3nc4ccccc4o3)C2)c2nccnc21` [Example 214, 5-(trans-3-(benzo[d]oxazol-2-ylamino)cyclobutyl)-7,7-dimethyl-5H-pyrrolo[2,3-b]pyrazin-6(7H)-one], for which the half-maximal inhibitory concentration (IC50) was found to be 2.87 nM.

`CC1(C)C(=O)N([C@H]2C[C@@H](Nc3nc4ccccc4s3)C2)c2nccnc21` [Example 215, 5-(cis-3-(benzo[d]thiazol-2-ylamino)cyclobutyl)-7,7-dimethyl-5H-pyrrolo[2,3-b]pyrazin-6(7H)-one] showed an IC50 of 0.978 nM.

Regarding `Cn1c(=O)n([C@H]2C[C@@H](Nc3nc4ccccc4s3)C2)c2nccnc21` [Example 216, 1-(cis-3-(benzo[d]thiazol-2-ylamino)cyclobutyl)-3-methyl-1H-imidazo[4,5-b]pyrazin-2(3H)-one], the concentration for half-maximal inhibition (IC50) stood at 16.9 nM.

`CC1(C)C(=O)N([C@H]2C[C@@H](NC(=O)c3nc4ccccc4[nH]3)C2)c2nccnc21` [Example 217, N-(cis-3-(7,7-dimethyl-6-oxo-6,7-dihydro-5H-pyrrolo[2,3-b]pyrazin-5-yl)cyclobutyl)-1H-benzo[d]imidazolE-2-carboxamide] came in with an IC50 of 38.3 nM.

With `Cc1ccc(N[C@H]2CC[C@@H](N3C(=O)C(C)(C)c4nccnc43)CC2)nc1` [Example 218, 7,7-dimethyl-5-(cis-4-((5-methylpyridin-2-yl)amino)cyclohexyl)-5H-pyrrolo[2,3-b]pyrazin-6(7H)-one], the IC50 was 1410 nM.

As for `O=c1n(C2CC2)c2nccnc2n1[C@H]1C[C@H](Nc2ncc3ccccc3n2)C1` [Example 219, 1-cyclopropyl-3-(trans-3-(quinazolin-2-ylamino)cyclobutyl)-1H-imidazo[4,5-b]pyrazin-2(3H)-one], the half-maximal inhibitory concentration (IC50) is 554 nM.

Consider `O=c1n(C2CC2)c2nccnc2n1[C@H]1C[C@H](Nc2nc3ccccc3o2)C1` [Example 220, 1-(trans-3-(benzo[d]oxazol-2-ylamino)cyclobutyl)-3-cyclopropyl-1H-imidazo[4,5-b]pyrazin-2(3H)-one], for which the IC50 amounted to 2.35 nM.

In the case of `O=c1n(C2CC2)c2nccnc2n1[C@H]1C[C@H](Nc2ccc(Cl)cn2)C1` [Example 221, 1-(trans-3-((5-chloropyridin-2-yl)amino)cyclobutyl)-3-cyclopropyl-1H-imidazo[4,5-b]pyrazin-2(3H)-one], the 50% inhibitory concentration (IC50) worked out at 2.77 nM.

In the case of `O=c1n(C2CC2)c2nccnc2n1[C@H]1C[C@H](Nc2nc3cc(F)ccc3s2)C1` [Example 222, 1-cyclopropyl-3-(trans-3-((5-fluorobenzo[d]thiazol-2-yl)amino)cyclobutyl)-1H-imidazo[4,5-b]pyrazin-2(3 H)-one], half-maximal inhibition (IC50) was put at 7.61 nM.

The molecule `O=c1n(C2CC2)c2nccnc2n1[C@H]1C[C@H](Nc2ccc3cccnc3n2)C1` [Example 223, 1-(trans-3-((1,8-naphthyridin-2-yl)amino)cyclobutyl)-3-cyclopropyl-1H-imidazo[4,5-b]pyrazin-2(3 H)-one] yielded a concentration for half-maximal inhibition (IC50) of 18.4 nM.

In turn, `COc1ccc2nc(N[C@H]3C[C@H](n4c(=O)n(C5CC5)c5nccnc54)C3)sc2c1` [Example 224, 1-cyclopropyl-3-(trans-3-((6-methoxybenzo[d]thiazol-2-yl)amino)cyclobutyl)-1H-imidazo[4,5-b]pyrazin-2(3 H)-one] showed an IC50 of 57.7 nM.

Take `COc1ccc2nc(N[C@H]3C[C@H](n4c(=O)n(C5CC5)c5nccnc54)C3)sc2c1` [Example 225, 1-cyclopropyl-3-(trans-3-((6-methoxy-1,3-benzothiazol-2-yl)amino)cyclobutyl)-1,3-dihydro-2H-imidazo[4,5-b]pyrazin-2-one]: the IC50 came out at 10.8 nM.

In turn, `Cn1c(N[C@H]2C[C@H](n3c(=O)n(C4CC4)c4nccnc43)C2)nc2ccccc21` [Example 226, 1-cyclopropyl-3-(trans-3-((1-methyl-1H-benzo[d]imidazol-2-yl)amino)cyclobutyl)-1H-imidazo[4,5-b]pyrazin-2(3H)-one] displayed a 50% inhibitory concentration (IC50) of 1.2 nM.
